In patent publication US20260262643A1, “HERBICIDAL BENZOXAZINES” (FMC CORPORATION, priority 2022, published 2026):

Experiments:
[1] = tested on: barnyardgrass; assay: Test C postemergence; assay type: in vivo, Echinochloa crusgalli; conditions: 10 days
Procedure, shortened: (§1)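 Greenhouse herbicide screen, 10-day duration. Test chemicals in solvent/surfactant blend were sprayed onto soil at sowing (pre) or onto 2–10 cm seedlings at one to two leaves (post); injury scored visually against controls, 0 no effect to 100 complete control.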

[2] = tested on: oat, wild; assay: Test C preemergence; assay type: in vivo, Avena fatua; conditions: 0 to 100 scale (0 no effect, 100 complete control); for Plant response rating, Oat, Wild: Preemergence, 500 g ai/ha, visual rating after 10 days; for Oat, Wild plant response rating: Test C, preemergence, 125 g ai/ha
Procedure, shortened: as §1

[3] = tested on: ryegrass, Italian; assay: Test C postemergence; assay type: in vivo, Lolium multiflorum; conditions: 10 days
Procedure, shortened: as §1

[4] = tested on: pigweed, palmer; assay: Test C preemergence; assay type: in vivo, Amaranthus palmeri; conditions: 0 to 100 scale (0 no effect, 100 complete control); for Plant response rating, Pigweed, Palmer: Preemergence, 500 g ai/ha, visual rating after 10 days; for Pigweed, Palmer plant response rating: Test C, preemergence, 125 g ai/ha
Procedure, shortened: as §1

[5] = tested on: wheat; assay: Test C postemergence; assay type: in vivo, Triticum aestivum; conditions: 10 days
Procedure, shortened: as §1

[6] = tested on: ryegrass, Italian; assay: Test C preemergence; assay type: in vivo, Lolium multiflorum; conditions: 0 to 100 scale (0 no effect, 100 complete control); for Plant response rating, Ryegrass, Italian: Preemergence, 500 g ai/ha, visual rating after 10 days; for Ryegrass, Italian plant response rating: Test C, preemergence, 125 g ai/ha
Procedure, shortened: as §1

[7] = tested on: soybean; assay: Test C preemergence; assay type: in vivo, Glycine max; conditions: 0 to 100 scale (0 no effect, 100 complete control); for Plant response rating, Soybean: Preemergence, 500 g ai/ha, visual rating after 10 days; for Soybean plant response rating: Test C, preemergence, 125 g ai/ha
Procedure, shortened: as §1

[8] = tested on: galium; assay: Test C postemergence; assay type: in vivo, Galium aparine; conditions: 10 days
Procedure, shortened: as §1

[9] = tested on: rice; assay: Test D flooded paddy test; assay type: in vivo, Oryza sativa; conditions: 250 g ai/ha, applied to paddy water, visual rating after 13 to 14 days, scale 0 to 100 (0 no effect, 100 complete control)
Procedure, shortened: (§2)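 Post-flood water application at the 2-leaf stage; 3 cm flood depth kept constant; visual control rating 0–100 after 13–14 days greenhouse growth.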

[10] = tested on: corn; assay: Test C postemergence; assay type: in vivo, Zea mays; conditions: 10 days
Procedure, shortened: as §1

[11] = tested on: oat, wild; assay: Test C postemergence; assay type: in vivo, Avena fatua; conditions: 10 days
Procedure, shortened: as §1

[12] = tested on: pigweed, palmer; assay: Test C postemergence; assay type: in vivo, Amaranthus palmeri; conditions: 10 days
Procedure, shortened: as §1

[13] = tested on: green foxtail; assay: Test C preemergence; assay type: in vivo, Setaria viridis; conditions: 0 to 100 scale (0 no effect, 100 complete control); for Plant response rating, Foxtail, Green: Preemergence, 500 g ai/ha, visual rating after 10 days; for Foxtail, Green plant response rating: Test C, preemergence, 125 g ai/ha
Procedure, shortened: as §1

[14] = tested on: ducksalad; assay: Test D flooded paddy test; assay type: in vivo, Heteranthera limosa; conditions: 250 g ai/ha, applied to paddy water, visual rating after 13 to 14 days, scale 0 to 100 (0 no effect, 100 complete control)
Procedure, shortened: as §2

[15] = tested on: corn; assay: Test C preemergence; assay type: in vivo, Zea mays; conditions: 0 to 100 scale (0 no effect, 100 complete control); for Plant response rating, Corn: Preemergence, 500 g ai/ha, visual rating after 10 days; for Corn plant response rating: Test C, preemergence, 125 g ai/ha
Procedure, shortened: as §1

[16] = tested on: sedge, umbrella; assay: Test D flooded paddy test; assay type: in vivo, Cyperus difformis; conditions: 250 g ai/ha, applied to paddy water, visual rating after 13 to 14 days, scale 0 to 100 (0 no effect, 100 complete control)
Procedure, shortened: as §2

[17] = tested on: ragweed; assay: Test C preemergence; assay type: in vivo, Ambrosia artemisiifolia; conditions: 0 to 100 scale (0 no effect, 100 complete control); for Plant response rating, Ragweed: Preemergence, 500 g ai/ha, visual rating after 10 days; for Ragweed plant response rating: Test C, preemergence, 125 g ai/ha
Procedure, shortened: as §1

[18] = tested on: kochia; assay: Test C preemergence; assay type: in vivo, Bassia scoparia; conditions: 0 to 100 scale (0 no effect, 100 complete control); for Plant response rating, Kochia: Preemergence, 500 g ai/ha, visual rating after 10 days; for Kochia plant response rating: Test C, preemergence, 125 g ai/ha
Procedure, shortened: as §1

[19] = tested on: soybean; assay: Test C postemergence; assay type: in vivo, Glycine max; conditions: 10 days
Procedure, shortened: as §1

[20] = tested on: barnyardgrass; assay: Test C preemergence; assay type: in vivo, Echinochloa crusgalli; conditions: 0 to 100 scale (0 no effect, 100 complete control); for Plant response rating, Barnyardgrass: Preemergence, 500 g ai/ha, visual rating after 10 days; for Barnyardgrass plant response rating: preemergence, 125 g ai/ha
Procedure, shortened: as §1

[21] = tested on: kochia; assay: Test C postemergence; assay type: in vivo, Bassia scoparia; conditions: 10 days
Procedure, shortened: as §1

[22] = tested on: horseweed; assay: Test C postemergence; assay type: in vivo, Erigeron canadensis; conditions: 10 days
Procedure, shortened: as §1

[23] = tested on: blackgrass; assay: Test C preemergence; assay type: in vivo, Alopecurus myosuroides; conditions: 0 to 100 scale (0 no effect, 100 complete control); for Plant response rating, Blackgrass: Preemergence, 500 g ai/ha, visual rating after 10 days; for Blackgrass plant response rating: Test C, preemergence, 125 g ai/ha
Procedure, shortened: as §1

[24] = tested on: wheat; assay: Test C preemergence; assay type: in vivo, Triticum aestivum; conditions: 0 to 100 scale (0 no effect, 100 complete control); for Plant response rating, Wheat: Preemergence, 500 g ai/ha, visual rating after 10 days; for Wheat plant response rating: Test C, preemergence, 125 g ai/ha
Procedure, shortened: as §1

[25] = tested on: barnyardgrass; assay: Test D flooded paddy test; assay type: in vivo, Echinochloa crus-galli; conditions: 250 g ai/ha, applied to paddy water, visual rating after 13 to 14 days, scale 0 to 100 (0 no effect, 100 complete control)
Procedure, shortened: as §2

[26] = tested on: green foxtail; assay: Test C postemergence; assay type: in vivo, Setaria viridis; conditions: 10 days
Procedure, shortened: as §1

[27] = tested on: ragweed; assay: Test C postemergence; assay type: in vivo, Ambrosia artemisiifolia; conditions: 10 days
Procedure, shortened: as §1

[28] = tested on: blackgrass; assay: Test C postemergence; assay type: in vivo, Alopecurus myosuroides; conditions: 10 days
Procedure, shortened: as §1

[29] = 125 g ai/ha, postemergence, 0 to 100 scale, 0 no effect, 100 complete control
[30] = Postemergence, 500 g ai/ha, visual 0 to 100 scale (0 no effect, 100 complete control)

Cc1ccc(-n2cnc(C[S+](C)[O-])n2)cc1C(=O)N1C[C@H](C)Oc2c(Cl)cccc21 (stereo partly shown) [Compound 224]
Plant response rating, Barnyardgrass [1, 29]: 10 | Plant response rating, Barnyardgrass [1, 30]: 50 | Plant response rating, Oat, Wild [2]: 90 | Oat, Wild plant response rating [2]: 30 | Plant response rating, Ryegrass, Italian [3, 29]: 50 | Plant response rating, Ryegrass, Italian [3, 30]: 100 | Plant response rating, Pigweed, Palmer [4]: 100 | Pigweed, Palmer plant response rating [4]: 90 | Plant response rating, Wheat [5, 29]: 20 | Plant response rating, Wheat [5, 30]: 60 | Plant response rating, Ryegrass, Italian [6]: 80 | Ryegrass, Italian plant response rating [6]: 70 | Plant response rating, Soybean [7]: 100 | Soybean plant response rating [7]: 60 | Plant response rating, Galium [8, 29]: 100 | Plant response rating, Rice (Flood) [9]: 15 | Plant response rating, Corn [10, 29]: 50 | Plant response rating, Corn [10, 30]: 90 | Plant response rating, Oat, Wild [11, 29]: 50 | Plant response rating, Oat, Wild [11, 30]: 70 | Plant response rating, Pigweed, Palmer [12, 29]: 90 | Plant response rating, Pigweed, Palmer [12, 30]: 90 | Plant response rating, Foxtail, Green [13]: 100 | Foxtail, Green plant response rating [13]: 100 | Plant response rating, Ducksalad (Flood) [14]: 95 | Plant response rating, Corn [15]: 20 | Corn plant response rating [15]: 0 | Plant response rating, Sedge, Umbrella (Flood) [16]: 98 | Plant response rating, Ragweed [17]: 40 | Ragweed plant response rating [17]: 0 | Plant response rating, Kochia [18]: 70 | Kochia plant response rating [18]: 40 | Plant response rating, Soybean [19, 29]: 100 | Plant response rating, Soybean [19, 30]: 100 | Plant response rating, Barnyardgrass [20]: 90 | Barnyardgrass plant response rating ([20]; Test C): 40 | Plant response rating, Kochia [21, 29]: 90 | Plant response rating, Kochia [21, 30]: 90 | Plant response rating, Horseweed [22, 29]: 30 | Plant response rating, Horseweed [22, 30]: 50 | Plant response rating, Blackgrass [23]: 70 | Blackgrass plant response rating [23]: 20 | Plant response rating, Wheat [24]: 50 | Wheat plant response rating [24]: 0 | Plant response rating, Barnyardgrass (Flood) [25]: 10 | Plant response rating, Foxtail, Green [26, 29]: 20 | Plant response rating, Foxtail, Green [26, 30]: 70 | Plant response rating, Ragweed [27, 29]: 50 | Plant response rating, Ragweed [27, 30]: 70 | Plant response rating, Blackgrass [28, 29]: 30 | Plant response rating, Blackgrass [28, 30]: 70

C[C@H]1CN(C(=O)c2cc(-n3cnc(C4CC4)n3)cc3c2OCCO3)c2cccc(Cl)c2O1 [Compound 156]
Plant response rating, Barnyardgrass [1, 29]: 70 | Plant response rating, Barnyardgrass [1, 30]: 90 | Plant response rating, Oat, Wild [2]: 40 | Oat, Wild plant response rating [2]: 20 | Plant response rating, Ryegrass, Italian [3, 29]: 50 | Plant response rating, Ryegrass, Italian [3, 30]: 90 | Plant response rating, Pigweed, Palmer [4]: 100 | Pigweed, Palmer plant response rating [4]: 100 | Plant response rating, Wheat [5, 29]: 60 | Plant response rating, Wheat [5, 30]: 80 | Plant response rating, Ryegrass, Italian [6]: 90 | Ryegrass, Italian plant response rating [6]: 60 | Plant response rating, Soybean [7]: 100 | Soybean plant response rating [7]: 80 | Plant response rating, Galium [8, 29]: 100 | Plant response rating, Galium [8, 30]: 100 | Plant response rating, Rice (Flood) [9]: 25 | Plant response rating, Corn [10, 29]: 30 | Plant response rating, Corn [10, 30]: 50 | Plant response rating, Oat, Wild [11, 29]: 20 | Plant response rating, Oat, Wild [11, 30]: 30 | Plant response rating, Pigweed, Palmer [12, 29]: 80 | Plant response rating, Pigweed, Palmer [12, 30]: 100 | Plant response rating, Foxtail, Green [13]: 100 | Foxtail, Green plant response rating [13]: 100 | Plant response rating, Ducksalad (Flood) [14]: 65 | Plant response rating, Corn [15]: 10 | Corn plant response rating [15]: 0 | Plant response rating, Sedge, Umbrella (Flood) [16]: 95 | Plant response rating, Ragweed [17]: 90 | Ragweed plant response rating [17]: 70 | Plant response rating, Kochia [18]: 100 | Kochia plant response rating [18]: 80 | Plant response rating, Soybean [19, 29]: 100 | Plant response rating, Soybean [19, 30]: 100 | Barnyardgrass plant response rating [20]: 70 | Plant response rating, Barnyardgrass [20]: 90 | Plant response rating, Kochia [21, 29]: 80 | Plant response rating, Kochia [21, 30]: 90 | Plant response rating, Horseweed [22, 29]: 50 | Plant response rating, Horseweed [22, 30]: 60 | Plant response rating, Blackgrass [23]: 90 | Blackgrass plant response rating [23]: 50 | Plant response rating, Wheat [24]: 30 | Wheat plant response rating [24]: 10 | Plant response rating, Barnyardgrass (Flood) [25]: 40 | Plant response rating, Foxtail, Green [26, 29]: 90 | Plant response rating, Foxtail, Green [26, 30]: 90 | Plant response rating, Ragweed [27, 29]: 80 | Plant response rating, Ragweed [27, 30]: 100 | Plant response rating, Blackgrass [28, 29]: 80 | Plant response rating, Blackgrass [28, 30]: 90
